Experimental findings from patent US12428380B2 (PSYLO PTY LTD, priority 2023, dated 2025) are described below.

pEC50: −log10 of the molar value.

Common to all, as to format: cell-based
For experiment [1], the target named is T1, 5-HT2C (Homo sapiens, UniProt P28335).
T1 construct: host or cells: HEK293
T1 sequence (P28335 33-458): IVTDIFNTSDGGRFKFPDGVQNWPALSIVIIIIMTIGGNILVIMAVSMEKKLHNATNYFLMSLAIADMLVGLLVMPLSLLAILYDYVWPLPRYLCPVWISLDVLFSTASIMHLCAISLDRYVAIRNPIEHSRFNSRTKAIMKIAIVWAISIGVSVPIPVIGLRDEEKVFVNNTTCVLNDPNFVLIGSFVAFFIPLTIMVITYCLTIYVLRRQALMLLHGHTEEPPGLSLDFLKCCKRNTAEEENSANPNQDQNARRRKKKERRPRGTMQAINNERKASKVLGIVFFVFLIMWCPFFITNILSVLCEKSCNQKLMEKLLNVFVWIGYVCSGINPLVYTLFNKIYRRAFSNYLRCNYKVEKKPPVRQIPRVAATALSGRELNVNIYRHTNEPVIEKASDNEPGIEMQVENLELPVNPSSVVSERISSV
In words: FLIPR Ca2+ flux functional assay, 5-HT2C (HEK293). The note with it: HEK293 cells expressing 5-HT2C; for Emax: HEK293, agonist activity; for pEC50: agonist activity. For orientation: Calcium flux is commonly read through the fluorescence of an indicator in the cells.

Experiment [2] deals with T2, 5-HT2B (Homo sapiens, UniProt P41595).
T2 construct: host or cells: CHO-K1
T2 sequence (P41595 whole entry, species assumed): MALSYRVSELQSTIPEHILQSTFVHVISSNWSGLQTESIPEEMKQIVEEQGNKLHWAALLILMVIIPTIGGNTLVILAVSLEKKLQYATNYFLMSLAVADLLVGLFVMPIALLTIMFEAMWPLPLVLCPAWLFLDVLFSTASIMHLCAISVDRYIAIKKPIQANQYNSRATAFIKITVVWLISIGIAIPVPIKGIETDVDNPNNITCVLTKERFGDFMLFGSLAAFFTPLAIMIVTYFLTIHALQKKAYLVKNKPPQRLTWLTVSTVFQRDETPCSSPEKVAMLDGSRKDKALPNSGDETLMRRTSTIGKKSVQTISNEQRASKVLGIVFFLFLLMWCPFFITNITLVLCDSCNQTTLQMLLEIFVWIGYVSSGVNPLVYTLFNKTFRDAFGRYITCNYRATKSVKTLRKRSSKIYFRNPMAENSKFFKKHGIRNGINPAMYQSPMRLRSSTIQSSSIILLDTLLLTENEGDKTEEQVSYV
In words: Activation in a similar Ca2+ flux assay at a single concentration, 5-HT2B. The note with it: head prints 10 µM. How it is done:
Activity at 5-HT2A, 5-HT2B and 5-HT2C receptors was determined using a FLIPR Ca2+ flux assay at WuXi AppTec Co. Ltd. (Hong Kong) Discovery Biology Unit according to their standard protocols. Briefly, stably transfected cells expressing the receptor of interest (HEK293 for 5-HT2A and 5-HT2C; CHO-K1 for 5-HT2B) were grown and plated in a 384 well plate and incubated at 37° C. and 5% CO2 overnight. A 250 mM stock solution of probenecid in FLIPR calcium assay buffer (10 mL) was freshly prepared and combined with a fluorescent dye (Fluo-4 Direct) to give a final assay concentration of 2.5 mM. Reference compounds were 4-fold serially diluted and the screening compounds were 3-fold serially diluted in 100% DMSO for 10 points using Agilent Bravo, and 750 nL was added to a 384 well compound plate using Echo along with 30 μL assay buffer. The fluorescent dye was then added to the assay plate along with assay buffer to a final volume of 40 μL. The cell plate was incubated for 50 min at 37° C. and 5% CO2 and placed into the FLIPR Tetra along with the compound plate. 10 μL of references and compounds were then transferred from the compound plate into the cell plate and the fluorescent signal was read.
Activation data are provided in a similar assay tested at a single 10 μM concentration.

The target in experiment [3] is T3, 5-HT2A (Homo sapiens, UniProt P28223).
T3 construct: host or cells: HEK293
T3 sequence (P28223 whole entry): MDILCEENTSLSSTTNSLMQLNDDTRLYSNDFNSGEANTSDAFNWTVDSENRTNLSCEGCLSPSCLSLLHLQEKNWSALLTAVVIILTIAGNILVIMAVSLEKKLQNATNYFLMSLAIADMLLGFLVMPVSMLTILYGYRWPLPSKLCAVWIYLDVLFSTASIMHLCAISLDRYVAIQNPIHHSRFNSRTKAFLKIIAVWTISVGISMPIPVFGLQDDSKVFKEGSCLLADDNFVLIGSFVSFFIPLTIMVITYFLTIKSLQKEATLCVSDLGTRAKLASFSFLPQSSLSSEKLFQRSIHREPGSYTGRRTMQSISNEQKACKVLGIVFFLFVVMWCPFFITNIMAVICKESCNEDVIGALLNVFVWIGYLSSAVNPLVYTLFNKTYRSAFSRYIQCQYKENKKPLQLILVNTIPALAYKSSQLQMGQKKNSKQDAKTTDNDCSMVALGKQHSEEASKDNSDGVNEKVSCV
Nature of the experiment: FLIPR Ca2+ flux functional assay, 5-HT2A (HEK293). The note with it: HEK293 cells expressing 5-HT2A; for Emax: HEK293, agonist activity; for pEC50: agonist activity.

The term Emax denotes the greatest response seen or fitted, relative to the assay's reference. By pEC50 is commonly meant the EC50 on a negative log10 scale, so that one unit is a factor of ten. In the case of `COc1c(F)ccc2[nH]nc(CCN(C)C)c12` [Example A1, 2-(5-fluoro-4-methoxy-1H-indazol-3-yl)-N,N-dimethylethan-1-amine], in experiment [1], the Emax came out at 84% and the pEC50 is 8.09. Further, the “5-HT2B % Activation @ 10 µM” value in experiment [2] was 21%. Also, in experiment [3], the Emax came to 82% and the pEC50 is 7.55.
The like results for `CCN(C)CCc1n[nH]c2ccc(F)c(OC)c12` [Example A2, N-ethyl-2-(5-fluoro-4-methoxy-1H-indazol-3-yl)-N-methylethan-1-amine] were, in that order, 86%, 7.81, 57%, 87% and 7.50.
The matching figures for `COc1c(F)ccc2[nH]nc(CCN(C)C(C)C)c12` [Example A3, N-(2-(5-fluoro-4-methoxy-1H-indazol-3-yl)ethyl)-N-methylpropan-2-amine]: 80%, 6.77, 17%, 76% and 7.02.
The matching figures for `COc1c(F)ccc2[nH]nc(CCN(C)C3CC3)c12` [Example A4, N-(2-(5-fluoro-4-methoxy-1H-indazol-3-yl)ethyl)-N-methylcyclopropanamine]: 91%, 7.77, 2%, 67% and 7.20.
In experiment [1], `CCN(C)CCc1n[nH]c2cc(F)c(OC)cc12` [Example A6, N-ethyl-2-(6-fluoro-5-methoxy-1H-indazol-3-yl)-N-methylethan-1-amine] gave a maximal effect (Emax) of 101% and a pEC50 of 6.10. In addition, the “5-HT2B % Activation @ 10 µM” value in experiment [2] is reported as 40%. Also, in experiment [3], the Emax was 86% and the pEC50 is 6.96.
The like results for `COc1cc2c(CCN(C)C(C)C)n[nH]c2cc1F` [Example A7, N-(2-(6-fluoro-5-methoxy-1H-indazol-3-yl)ethyl)-N-methylpropan-2-amine] were, in that order, 67%, 5.38, 7%, 63% and 6.50.
The like results for `COc1cc2c(CCN(C)C3CC3)n[nH]c2cc1F` [Example A8, N-(2-(6-fluoro-5-methoxy-1H-indazol-3-yl)ethyl)-N-methylcyclopropanamine] were, in that order, 102%, 6.29, 6%, 71% and 6.68.
In experiment [1], `COc1ccc2[nH]nc(CCN(C)C)c2c1F` [Example A9, 2-(4-fluoro-5-methoxy-1H-indazol-3-yl)-N,N-dimethylethan-1-amine] had a maximal effect (Emax) of 73% and a pEC50 of 5.96. Also, the “5-HT2B % Activation @ 10 µM” value in experiment [2] was 0%. In experiment [3], this molecule showed an Emax of 75% and a pEC50 of 6.09.
In experiment [1], `CCN(C)CCc1n[nH]c2ccc(OC)c(F)c12` [Example A10, N-ethyl-2-(4-fluoro-5-methoxy-1H-indazol-3-yl)-N-methylethan-1-amine] gave a maximal effect (Emax) of 68% and a pEC50 of 5.54. Further, in experiment [2], the “5-HT2B % Activation @ 10 µM” value came to 1%. In experiment [3], the Emax was found to be 69% and the pEC50 is 6.08.
For `COc1ccc2[nH]nc(CCN(C)C(C)C)c2c1F` [Example A11, N-(2-(4-fluoro-5-methoxy-1H-indazol-3-yl)ethyl)-N-methylpropan-2-amine], the figures for the Emax in experiment [1] and in experiment [3] were 22% and 64%, respectively. The results for the pEC50 in experiment [1] and in experiment [3] were under 5.00 and 5.86, respectively. Moreover, in experiment [2], the “5-HT2B % Activation @ 10 µM” value is reported as 0%.
On to `CN(C)CCc1n[nH]c2cccc(F)c12` [Example A13, 2-(4-fluoro-1H-indazol-3-yl)-N,N-dimethylethan-1-amine], for which, in experiment [1], the Emax is 48% and the pEC50 was 6.03. Moreover, the “5-HT2B % Activation @ 10 µM” value in experiment [2] was 0%. Moreover, in experiment [3], the Emax came out at 55% and the pEC50 was 5.69.
The matching figures for `CN(C)CCc1n[nH]c2ccc(F)cc12` [Example A17, 2-(5-fluoro-1H-indazol-3-yl)-N,N-dimethylethan-1-amine]: 80%, 7.47, 25%, 82% and 6.78.
The matching figures for `CCN(C)CCc1n[nH]c2ccc(F)cc12` [Example A18, N-ethyl-2-(5-fluoro-1H-indazol-3-yl)-N-methylethan-1-amine]: 79%, 6.89, 16%, 55% and 6.58.
The like results for `CC(C)N(C)CCc1n[nH]c2ccc(F)cc12` [Example A19, N-(2-(5-fluoro-1H-indazol-3-yl)ethyl)-N-methylpropan-2-amine] were, in that order, 69%, 5.82, 1%, 25% and under 5.00.
In experiment [1], `CN(CCc1n[nH]c2ccc(F)cc12)C1CC1` [Example A20, N-(2-(5-fluoro-1H-indazol-3-yl)ethyl)-N-methylcyclopropanamine] gave an Emax of 83% and a pEC50 of 6.69. The “5-HT2B % Activation @ 10 µM” value in experiment [2] stood at 1%. In experiment [3], this molecule showed an Emax of 45% and a pEC50 of 6.38.
Turning to `CCN(C)CCc1n[nH]c2cc(F)cc(F)c12` [Example A29, 2-(4,6-difluoro-1H-indazol-3-yl)-N-ethyl-N-methylethan-1-amine], the figures for the maximal effect (Emax) in experiment [1] and in experiment [3] were 70% and 33%, respectively. Besides, the pEC50 in experiment [1] is 5.83; in experiment [3] it was 6.16. In addition, the “5-HT2B % Activation @ 10 µM” value in experiment [2] worked out at 0%.
The matching figures for `COc1ccccc1CNCCc1n[nH]c2cc(F)cc(F)c12` [Example A33, 2-(4,6-difluoro-1H-indazol-3-yl)-N-(2-methoxybenzyl)ethan-1-amine]: 90%, 91%, 6.80, 7.84 and 23%.
In experiment [1], `COc1cc(F)cc2[nH]nc(CCN3CCC3)c12` [Example A41, 3-(2-(azetidin-1-yl)ethyl)-6-fluoro-4-methoxy-1H-indazole] showed an Emax of 65% and a pEC50 of 5.85. Besides, in experiment [3], the Emax was 78% and the pEC50 is 5.97.
The like results for `COc1cc(F)cc2[nH]nc(CCN3CCCC3)c12` [Example A42, 6-fluoro-4-methoxy-3-(2-(pyrrolidin-1-yl)ethyl)-1H-indazole] were, in that order, 89%, 6.03, 81% and 6.16.
With `COc1ccc(F)c2[nH]nc(CCN3CCCC3)c12` [Example A48, 7-fluoro-4-methoxy-3-(2-(pyrrolidin-1-yl)ethyl)-1H-indazole], the Emax worked out at 67% in experiment [1] and 70% in experiment [3]. The pEC50 in experiment [1] was 6.25; in experiment [3] it was 6.27.
The matching figures for `COc1cc(F)c2[nH]nc(CCN3CCCC3)c2c1` [Example A54, 7-fluoro-5-methoxy-3-(2-(pyrrolidin-1-yl)ethyl)-1H-indazole]: 38%, 75%, 5.49 and 5.86.
The matching figures for `COc1cc2c(CCN3CC4CC4C3)n[nH]c2cc1F` (stereo not drawn) [Example A61, 3-(2-(3-azabicyclo[3.1.0]hexan-3-yl)ethyl)-6-fluoro-5-methoxy-1H-indazole]: 21%, 67%, under 5.00 and 5.80.
The like results for `Fc1ccc2[nH]nc(CCN3CCC3)c2c1F` [Example A72, 3-(2-(azetidin-1-yl)ethyl)-4,5-difluoro-1H-indazole] were, in that order, 37%, 78%, 6.01 and 5.87.
`COc1cc2c(CCN3CCC4CC43)nn(C)c2cc1F` (stereo not drawn) [Example A75, 3-(2-(2-azabicyclo[3.1.0]hexan-2-yl)ethyl)-6-fluoro-5-methoxy-1-methyl-1H-indazole]: in experiment [3], the Emax was 77% and the negative logarithm of the EC50 (pEC50) is 7.20.
